Assay results taken from paper PMC9207806 (ACS Chemical Biology, 2022).
Like-named read-outs stand apart in the source and are kept apart here.

Columns and labels:
[1] = molecular target: T1, D9 (Vaccinia virus, UniProt P04311); experiment: Time-dependent fluorescence changes of probes 1a-1e on D9 cleavage; format: biochemical; details: probe 100 nM, D9 50 nM, pH 7.5 (Figure S1)
T1 construct: His-tag (C); made in house
Procedure: Fluorescence emission spectra were recorded using the Agilent Cary Eclipse fluorescence spectrophotometer equipped with the xenon lamp under temperature-controlled conditions. All experiments were performed at 37 °C in the Hellma quartz cuvette (10 × 4 mm) with a sample volume 1000 μL in 10 mM Tris·HCl (pH 7.5), 100 mM KOAc, 2 mM MgCl2, 0.5 mM MnCl2, and 2 mM DTT. Before each measurement, the buffer was degassed. Emission spectra were registered for all excitation maxima (detailed wavelengths for each probe: 1a—exc. 490/em. 512 nm; 1b, 1d, and 1e—345/378 nm; and 1c—420/489 nm).

[2] = molecular target: T2, VACV D9 decapping enzyme (Vaccinia virus, UniProt P04311); experiment: biochemical; format: biochemical
T2 construct: His-tag (C); made in house
Procedure: (§1) Point fluorescence measurements were performed using the BioTek Synergy H1 microplate reader. Before each measurement, the reaction buffer was degassed. Experiments were performed in the Greiner 96-well, black, non-binding plates at 30 °C. Before the measurement, the plate was preincubated for 15 min at 30 °C with mixing (300 rpm). The point fluorescence was registered with 1 min interval and detection at 345 nm excitation wavelength and 378 nm emission wavelength.
Experiments to determine IC50 parameters were performed as point fluorescence measurements. Each well contained an appropriate buffer (10 mM MOPS·HCl, pH 7.0, 100 mM KOAc, containing 2 mM MgCl2, 0.3 mM MnCl2, and 2 mM DTT) with addition of 0.1% BSA, a fluorescent substrate (3 μM of probe 1b), an inhibitor (in half-logarithmic dilution, cinh ∈ 0, 100 μM), and an enzyme (5 nM of D9) to a final volume of 150 μL. To determine the IC50 values, a three parameter dose–response formula with standard hill slope from GraphPad Prism software was fitted [drawing 3] where V/V0 is the relative initial rate of the reaction, Imin and Imax are bottom and top plateaus, and Cinh is the concentration of the inhibitor.

[3] = molecular target: T1, D9; details: cited from earlier work
[4] = molecular target: T1, D9; format: biochemical; details: 30 μM compound, 25 nM D9, 30 °C, 2 h, RP HPLC
[5] = test system: SpDcp1/Dcp2; details: cited from earlier work
[6] = molecular target: T3, VACV D10 (Vaccinia virus, UniProt P04312); format: biochemical
T3 construct: made in house

[7] = molecular target: T4, human Dcp1/2 complex (Homo sapiens, UniProt Q8IU60); format: biochemical; details: 11 nM hDcp1/2, inhibitor up to 100 μM, 37 °C, 1 h
T4 construct: His-tag; made in house; host or cells: E. coli BL21(DE3) RIL

[8] = test system: C[n+]1cn([C@@H]2O[C@H](COP(=O)(O)OP(=O)([O-])OP(=O)(O)CCc3cn(CCOCCOCCNC(=O)Cc4ccc5ccc6cccc7ccc4c5c67)nn3)[C@@H](O)[C@H]2O)c2nc(N)[nH]c(=O)c21; experiment: Michaelis-Menten kinetics of probe 1b hydrolysis by D9; format: biochemical, Vaccinia virus; details: other: probe 0-15 μM, 5 nM D9; means of three experiments ± SEM; pH 7.0; 30.0 °C
Procedure: as §1
To determine the kinetic parameters of enzymatic hydrolysis of probe 1b by D9 enzyme, point fluorescence measurements were performed. Each well of the plate contained an appropriate buffer (10 mM MOPS·HCl, pH 7.0, 100 mM KOAc, containing 2 mM MgCl2, 0.3 mM MnCl2, and 2 mM DTT) with addition of 0.1% BSA, a substrate (probe 1b at a concentration range 0–15 μM) and an enzyme (5 nM of D9) to a final volume of 150 μL. The measurement was carried out on until full saturation, which allowed us to convert the initial rates from au/min to mol/min/mg. The initial rates were calculated by fitting a linear curve to the first 10 points (10 min) of the hydrolysis reaction. […]

[9] = in-house nucleotide library (Table S1, Figure 3), 3 μM probe 1b, 5 nM D9, 30 °C, means of 3 independent experiments ± SEM, read-out: IC50, nucleotide-derived compounds, FLINT HTS assay
[10] = read-out: IC50, nucleotide-derived compounds, FLINT HTS assay, in-house nucleotide library (Table S1, Figure 3), 3 μM probe 1b, 5 nM D9, 30 °C, means of 3 independent experiments ± SEM

Compound: Cc1cc(C)n2c1C=C1C=CC(CNC(=O)CSP(=O)([O-])OP(=O)(O)OP(=O)(O)OC[C@H]3O[C@@H](n4c[n+](C)c5c(=O)[nH]c(N)nc54)[C@H](O)[C@@H]3O)=[N+]1[B-]2(F)F [Compound 1a, m^7GTPγS-BODIPY-FL]
- time to complete hydrolysis by D9 [1]: ~ 40 min

Compound: C[n+]1cn([C@@H]2O[C@H](COP(=O)(O)OP(=O)([O-])OP(=O)(O)CCc3cn(CCOCCOCCNC(=O)Cc4ccc5ccc6cccc7ccc4c5c67)nn3)[C@@H](O)[C@H]2O)c2nc(N)[nH]c(=O)c21 [Compound 1b, m^7GTP-Py]
- time to complete hydrolysis by D9 [1]: ~ 40 min

Compound: C[n+]1cn([C@@H]2O[C@H](COP(=O)([O-])OP(=O)(O)O)[C@@H](O)[C@H]2O)c2nc(N)[nH]c(=O)c21 [m7GDP]
- IC50 [2]: 14.2 ± 2.4 µM
- D9 inhibition (literature) [3]: less potent D9 inhibitors

Compound: Cn1c[n+]([C@@H]2O[C@H](COP(=O)([O-])OP(=O)(O)OP(=O)(O)O)[C@@H](O)[C@H]2O)c2nc(N)[nH]c(=O)c21 [m7GTP]
- IC50 [2, 9]: 0.77 ± 0.06 µM
- susceptibility to hydrolysis by D9 [4]: very poor D9 substrates
- D9 inhibition (literature) [3]: less potent D9 inhibitors

Compound: C[n+]1cn([C@@H]2O[C@H](COP(=O)([S-])OP(=O)(O)OP(=O)(O)OP(=O)([S-])OC[C@H]3O[C@@H](n4c[n+](C)c5c(O)nc(N)nc54)[C@H](O)[C@@H]3O)[C@@H](O)[C@H]2O)c2nc(N)nc(O)c21 (some centres unmarked) [m7GpSpppSm7G D3]
- IC50 [2, 10]: 3.6 ± 0.4 µM
- inhibition of yeast decapping enzyme SpDcp1/Dcp2 (literature) [5]: inhibitor

Compound: C[n+]1cn([C@@H]2O[C@H](COP(=O)(O)OP(=O)([O-])OP(=O)(O)CP(=O)(O)O)[C@@H](O)[C@H]2O)c2nc(N)nc(O)c21 [m7GpppCH2p]
- IC50 [2, 10]: ~0.08 µM
- inhibitory activity toward D10 [6]: weak inhibitory activity

Compound: Cn1c[n+]([C@@H]2O[C@H](COP(=O)(O)OP(=O)([O-])OP(=O)(O)OC[C@H]3O[C@@H](n4cnc5c(=O)[nH]c(N)nc54)[C@H](O)[C@@H]3O)[C@@H](O)[C@H]2O)c2nc(N)[nH]c(=O)c21 [m7GpppG]
- IC50 ([2]; LOPAC hits and reference compounds (Table 2), 3 μM probe 1b, 5 nM D9, 30 °C, mean ± SEM of three experiments, read-out: IC50, inhibitors identified by HTS screening): 15 ± 2 µM
- IC50 [2, 9]: 11.3 ± 1.9 µM
- susceptibility to hydrolysis by D9 [4]: very poor D9 substrates
- D9 inhibition (literature) [3]: less potent D9 inhibitors

Compound: CC[C@H](CO)Nc1nc(NCc2ccccc2)c2ncn(C(C)C)c2n1 [seliciclib, reference compound]
- inhibitory activity toward Dcp1/2 [7]: very low inhibitory activity
- inhibitory activity toward D10 [6]: very low inhibitory activity

Compound: Gpp-SCH2-triazole-m7G
- IC50 [2, 9]: > 100 µM

Compound: Gpp-triazole-m7G
- IC50 [2, 9]: > 100 µM

Compound: Gppp-SCH2-triazole-m7G
- IC50 [2, 9]: > 100 µM

Compound: Gppp-triazole-m7G
- IC50 [2, 9]: 35 ± 5.3 µM

Compound: VACV D9 decapping enzyme (Vaccinia virus WR)
- Km [8]: 12.9 ± 2.2 µM
- kcat/Km [8]: 6300 ± 1200 M⁻¹ s⁻¹

Compound: m7GNpppG
- IC50 [2, 9]: 32.1 ± 5.9 µM

Compound: m7Gmppp6SG
- IC50 [2, 9]: 7.2 ± 1.1 µM

Compound: m7Gpp-SCH2-triazole-G
- IC50 [2, 9]: 46 ± 6.8 µM

Compound: m7Gpp-triazole-G
- IC50 [2, 9]: 17.5 ± 2.6 µM

Compound: m7GppCCl2ppm7G
- IC50 [2, 9]: 28.8 ± 4.1 µM

Compound: m7GppCCppG
- IC50 [2, 9]: 24.4 ± 4 µM

Compound: m7Gppp m6AmpG
- IC50 [2, 9]: 17.4 ± 3 µM

Compound: m7Gppp-SCH2-triazole-G
- IC50 [2, 9]: 24.9 ± 4.8 µM

Compound: m7GpppApG
- IC50 [2, 9]: 11.3 ± 2 µM
